# According to US20250171417A1, “HETEROCYCLIC DERIVATIVE, AND COMPOSITION AND PHARMACEUTICAL USE THEREOF” (Xizang Haisco Pharmaceutical Co., Ltd., priority 2021, published 2025):
# Tested on: Prostate cancer cells 22RV1
# Assay: Experiment on inhibiting 22RV1 cell proliferation (CellTiter-Glo, 7 days)
# Format: cell-based
# Settings: Homo sapiens, 168 h, 22RV1 cells, 7 days incubation, cells with nM printed beside the value, read-out: IC50 values for inhibition of 22RVI cells
# Method: Prostate cancer cells 22RV1 were purchased from ATCC, the cell medium was RPMI 1640+10% FBS, and the cells were cultured in an incubator at 37° C. under 5% CO2. On day 1, the cells in the exponential growth phase were collected. With a 1% css-FBS phenol red-free medium, the cell suspension was adjusted to a corresponding concentration, plated at 2000 cells/well and incubated overnight. On day 2, compounds at different concentrations were added, and the plate was placed in the incubator and incubated for further 7 days. After the incubation was completed, according to operation instructions for a CellTiter-Glo kit (Promega, G7573), 50 μL of CellTiter-Glo reagents, which were already pre-melted and equilibrated to room temperature, were added to each well, and the mixtures were uniformly mixed for 2 min using a microplate shaker. The plate was placed at room temperature for 10 min. and then […] signal values were measured using a microplate reader (PHERAstar FSX). The results were processed according to formula (I), the inhibition rate of the compound at different concentrations was calculated, and the IC50 value of the compound with an inhibition rate of 50% was calculated using origin9.2 software with DoseResp function, wherein RLUcompound was the readout of the treated group, and RLUcontrol was the average value of the DMSO vehicle control group.
row,SMILES,IC50 [nM]
1,"CN(C)c1cc(C(F)(F)F)ccc1NC(=O)C(C)(C)n1cc(C#CC2CN(c3ccc4c(c3)C(=O)N(C3CCC(=O)NC3=O)C4=O)C2)cn1 (centres unmarked) [Compound 182, N-(2-(dimethylamino)-4-(trifluoromethyl)phenyl)-2-(4-((1-(2-(2,6-dioxopiperidin-3-yl)-1,3-dioxoisoindolin-5-yl)azetidin-3-yl)ethynyl)-1H-pyrazol-1-yl)-2-methylpropanamide]",< 100
2,"CN(C)c1ccc(NC(=O)C2(n3cc(C#CC4CN(c5ccc6c(c5)C(=O)N(C5CCC(=O)NC5=O)C6=O)C4)cn3)CCC2)c(Cl)c1 (centres unmarked) [Compound 181, N-(2-chloro-4-(dimethylamino)phenyl)-1-(4-(2-(1-(2-(2,6-dioxopiperidin-3-yl)-1,3-dioxo-2,3-dihydro-1H-isoindol-5-yl)azetidin-3-yl)ethynyl)-1H-pyrazol-1-yl)cyclobutane-1-carboxamide]",< 50
3,"N#Cc1ccc(NC(=O)C2(n3cc(C#CC4CN(c5ccc6c(c5)C(=O)N(C5CCC(=O)NC5=O)C6=O)C4)cn3)CCC2)c2ccccc12 (centres unmarked) [Compound 34, N-(4-cyanonaphthalen-1-yl)-1-(4-((1-(2-(2,6-dioxopiperidin-3-yl)-1,3-dioxoisoindolin-5-yl)azetidin-3-yl)ethynyl)-1H-pyrazol-1-yl)cyclobutane-1-carboxamide]",< 100
4,"N#Cc1ccc(NC(=O)C2(n3cc(C#CC4CN(c5ccc6c(c5)C(=O)N(C5CCC(=O)NC5=O)C6=O)C4)cn3)CCC2)cc1C1CC1 (centres unmarked) [Compound 40, N-(4-cyano-3-cyclopropylphenyl)-1-(4-((1-(2-(2,6-dioxopiperidin-3-yl)-1,3-dioxoisoindolin-5-yl)azetidin-3-yl)ethynyl)-1H-pyrazol-1-yl)cyclobutane-1-carboxamide]",< 100
5,"CC#Cc1cc(C(F)(F)F)ccc1NC(=O)C(C)(C)n1ncc(C#CC2CN(c3ccc4c(c3)C(=O)N(C3CCC(=O)NC3=O)C4=O)C2)c1C (centres unmarked) [Compound 194, 2-(4-((1-(2-(2,6-dioxopiperidin-3-yl)-1,3-dioxoisoindolin-5-yl)azetidin-3-yl)ethynyl)-5-methyl-1H-pyrazol-1-yl)-2-methyl-N-(2-(prop-1-yn-1-yl)-4-(trifluoromethyl)phenyl) propanamide]",< 100
6,"CC(C)(C(=O)Nc1ccc(C#N)cc1C1CC1)n1cc(C#CC2CN(c3ccc4c(c3)C(=O)N(C3CCC(=O)NC3=O)C4=O)C2)c(C#N)n1 (centres unmarked) [Compound 201, N-(4-cyano-2-cyclopropylphenyl)-2-(3-cyano-4-((1-(2-(2,6-dioxopiperidin-3-yl)-1,3-dioxoisoindolin-5-yl)azetidin-3-yl)ethynyl)-1H-pyrazol-1-yl)-2-methylpropanamide]",< 100
7,"N#Cc1ccc(NC(=O)C2(n3cc(C#CC4CN(c5ccc6c(c5)C(=O)N(C5CCC(=O)NC5=O)C6=O)C4)cn3)CCC2)cc1N1CCCC1 (centres unmarked) [Compound 50, N-(4-cyano-3-(pyrrolidin-1-yl)phenyl)-1-(4-((1-(2-(2,6-dioxopiperidin-3-yl)-1,3-dioxoisoindolin-5-yl)azetidin-3-yl)ethynyl)-1H-pyrazol-1-yl)cyclobutane-1-carboxamide]",< 100
8,"O=C1CCC(N2C(=O)c3ccc(N4CC(C#Cc5cnn(C6(C(=O)Nc7ccc(C(F)(F)F)cc7Cl)CCCC6)c5)C4)cc3C2=O)C(=O)N1 (centres unmarked) [Compound 69, N-(2-chloro-4-(trifluoromethyl)phenyl)-1-(4-((1-(2-(2,6-dioxopiperidin-3-yl)-1,3-dioxoisoindolin-S-yl)azetidin-3-yl)ethynyl)-1H-pyrazol-1-yl)cyclopentane-1-carboxamide]",< 50
9,"[2H]C([2H])([2H])C(C(=O)Nc1ccc(C(F)(F)F)cc1C#CC)(n1cc(C#CC2CN(c3ccc4c(c3)C(=O)N(C3CCC(=O)NC3=O)C4=O)C2)cn1)C([2H])([2H])[2H] (centres unmarked) [Compound 175, 2-(4-((1-(2-(2,6-dioxopiperidin-3-yl)-1,3-dioxoisoindolin-5-yl)azetidin-3-yl)ethynyl)-1H-pyrazol-1-yl)-2-(methyl-d3)—N-(2-(prop-1-yn-1-yl)-4-(trifluoromethyl)phenyl) propanamide-d3]",< 100

# Same assay, conditions: Homo sapiens, 168 h, 22RV1 cells, 7 days incubation, cells without a unit of their own (μM), read-out: IC50 values for inhibition of 22RVI cells
row,SMILES,IC50 [nM]
1,"CC(C)(C(=O)Nc1ccc(C(F)(F)F)cc1Cl)n1cnc2ccc(C#CC3CN(c4ccc5c(c4)C(=O)N(C4CCC(=O)NC4=O)C5=O)C3)cc21 (centres unmarked) [Compound 161, N-(2-chloro-4-(trifluoromethyl)phenyl)-2-(6-((1-(2-(2,6-dioxopiperidin-3-yl)-1,3-dioxoisoindolin-5-yl)azetidin-3-yl)ethynyl)-1H-benzo[d]imidazol-1-yl)-2-methylpropanamide]",< 1000
2,"CC(C)(C(=O)Nc1ccc(C#N)c2ncccc12)n1cc(C#CC2CN(c3ccc4c(c3)C(=O)N(C3CCC(=O)NC3=O)C4=O)C2)cn1 (centres unmarked) [Compound 43, N-(8-cyanoquinolin-5-yl)-2-(4-((1-(2-(2,6-dioxopiperidin-3-yl)-1,3-dioxoisoindolin-5-yl)azetidin-3-yl)ethynyl)-1H-pyrazol-1-yl)-2-methylpropanamide]",< 1000
3,"CC(C)(C(=O)Nc1ccc([N+](=O)[O-])c(C(F)(F)F)c1)n1cc(C#CC2CN(c3ccc4c(c3)C(=O)N(C3CCC(=O)NC3=O)C4=O)C2)cn1 (centres unmarked) [Compound 26, 2-(4-((1-(2-(2,6-dioxopiperidin-3-yl)-1,3-dioxoisoindolin-5-yl)azetidin-3-yl)ethynyl)-1H-pyrazol-1-yl)-2-methyl-N-(4-nitro-3-(trifluoromethyl)phenyl)propanamide]",< 1000
4,N#Cc1ccc(NC(=O)C2(n3cc(C#CC4CN(c5cc6c(cc5F)C(=O)N(C5CCC(=O)NC5=O)C6=O)C4)cn3)CCC2)c2ccccc12 (centres unmarked) [Compound 80],< 1000
5,"CC(C)(C(=O)Nc1ccc(C#N)cc1C(F)(F)F)n1cc(C#CC2CN(c3ccc4c(c3)C(=O)N(C3CCC(=O)NC3=O)C4=O)C2)cn1 (centres unmarked) [Compound 44, N-(4-cyano-2-(trifluoromethyl)phenyl)-2-(4-((1-(2-(2,6-dioxopiperidin-3-yl)-1,3-dioxoisoindolin-5-yl)azetidin-3-yl)ethynyl)-1H-pyrazol-1-yl)-2-methylpropanamide]",< 1000
6,"CC(C)(C(=O)Nc1ccc(C(F)(F)F)c(Cl)c1)n1cc(C#CC2CN(c3ccc4c(c3)C(=O)N(C3CCC(=O)NC3=O)C4=O)C2)cn1 (centres unmarked) [Compound 17, N-(3-chloro-4-(trifluoromethyl)phenyl)-2-(4-((1-(2-(2,6-dioxopiperidin-3-yl)-1,3-dioxoisoindolin-5-yl)azetidin-3-yl)ethynyl)-1H-pyrazol-1-yl)-2-methylpropanamide]",< 1000
7,"COc1cc(NC(=O)C(C)(C)n2cc(C#CC3CN(c4ccc5c(c4)C(=O)N(C4CCC(=O)NC4=O)C5=O)C3)cn2)ccc1C#N (centres unmarked) [Compound 23, N-(4-cyano-3-methoxyphenyl)-2-(4-((1-(2-(2,6-dioxopiperidin-3-yl)-1,3-dioxoisoindolin-5-yl)azetidin-3-yl)ethynyl)-1H-pyrazol-1-yl)-2-methylpropanamide]",< 1000
8,"O=C1CCC(N2C(=O)c3ccc(N4CC(N5Cc6cn(C7(C(=O)Nc8ccc(C(F)(F)F)cc8Cl)CCC7)nc6C5)C4)cc3C2=O)C(=O)N1 (centres unmarked) [Compound 197, N-(2-chloro-4-(trifluoromethyl)phenyl)-1-(5-(1-(2-(2,6-dioxopiperidin-3-yl)-1,3-dioxoisoindolin-5-yl)azetidin-3-yl)-5,6-dihydropyrrolo[3,4-c]pyrazol-2 (4H)-yl)cyclobutane-1-carboxamide]",< 1000
